Results from the supplement of paper PMC10949913.

What was measured:
Details in all cases: 48 h
CU-ACC1 [1] = test: AC50 viability; higher = less potent
Summary of the method: (§1)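 For each of three adrenocortical carcinoma cell lines, 500–1,000 cells/well were placed in 5 µL medium in 1,536-well plates. A 23 nL volume of every library compound was added at 11 concentrations. Following 48 h, a 15-minute room-temperature CellTiter-Glo step preceded luminescence reading, with signals normalised per plate to vehicle and empty-well controls. AC50 and area under the curve were derived by curve fitting, retaining only inhibitory or non-responding curve classes.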

CU-ACC2 = test: area under concentration-response curve (viability) (AUC (a.u.)); higher = less active
Summary of the method: as §1

CU-ACC1 [2] = test: as above
Summary of the method: as §1

NCI-H295R = test: as above
Summary of the method: as §1

Row | Compound | AC50 viability (CU-ACC1 [1]) [µM] | area under concentration-response curve (CU-ACC2) | area under concentration-response curve (CU-ACC1 [2]) | area under concentration-response curve (NCI-H295R)
1 | CNC(=O)c1c(F)cccc1Nc1nc(Nc2cc3c(cc2OC)CCN3C(=O)CN(C)C)nc2[nH]ccc12 | 20.9 | 526 | 524 | 458
2 | O=C(NOCC(O)CO)c1cc(Br)c(F)c(F)c1Nc1ccc(I)cc1F (stereo unspecified) | 1.18 | 407 | 416 | –
3 | CN(CC#C)C/C1=C/C2=CC=CC=C2OC3=CC=CC=C13 | 33.2 | 524 | 419 | 546
4 | COc1ccc([S+](=O)([O-])Nc2cccnc2Nc2ccc(O)cc2)cc1 | 4.68 | 569 | 479 | 498
5 | COC[C@H]1OC(=O)C2=COC3=C2[C@@]1(C)\C4=C(C5CCC(=O)[C@@]5(C)C[C@H]4OC(C)=O)/C3=O (stereo partly specified) | 16.6 | 549 | 446 | –
6 | N=C(N)Nc1ccc(C(=O)Oc2ccc3cc(C(=N)N)ccc3c2)cc1 | 33.2 | 585 | 460 | 532
7 | Cc1c(CN2CCC(Nc3ncnc4sc(CC(F)(F)F)cc34)CC2)ccc2c1cc(C#N)n2Cc1cn[nH]c1 | 3.32 | 540 | 411 | 453
8 | Cc1ccc(-n2nc(C(C)(C)C)cc2NC(=O)Nc2ccc(OCCN3CCOCC3)c3ccccc23)cc1 | 29.5 | 499 | 374 | –
9 | COCCOC1=CN=C2\C=C/N([C@H](C)C3=NN=C4[N]3C=C(C=C4F)C5=C[N](C)N=C5)C(=O)C2=C1 | 0.0118 | 338 | 394 | 322
10 | [O-][n+]1cccc(-c2nc3c(Cl)cccc3cc2[C@@H](Nc2ncnc3cccnc23)C(F)(F)F)c1 | 26.3 | 368 | 332 | –
11 | CN(C)CCOc1cc(-c2cn[nH]c2)ccc1NC(=O)C1COc2ccccc2O1 (stereo unspecified) | 20.9 | 426 | 390 | 452
12 | Cc1c[nH]c(/C=C2\C(=O)Nc3ccccc32)c1CCC(=O)O | 0.0105 | 353 | 428 | 381
13 | O=C(Nc1cccc(Br)c1)c1cccc([S+](=O)([O-])N2CCCCCC2)c1 | 29.5 | 608 | 486 | –
14 | Clc1ccc(Cn2c(CN3CCCC3)nc3ccccc32)cc1 | 29.5 | 576 | 447 | –
15 | Clc1ccccc1C(c1ccccc1)(c1ccccc1)n1ccnc1 | 18.6 | 518 | 509 | –
16 | O=C(O)c1ccc(O)c2ncccc12 | 33.2 | 491 | 458 | 447
17 | N#Cc1ccc(COC[C@H]2O[C@@H](n3c(NCc4ccc(Cl)c(Cl)c4)nc4c(N)ncnc43)[C@H](O)[C@@H]2O)cc1 | 20.9 | – | 464 | 494
18 | CCc1ccc(/C=C2/SC(=S)NC2=O)cc1 | 2.63 | – | 396 | 394
19 | O=C1N\N=C(\CC2=CC=CC(=C2)C(=O)N3CCN(CC3)C4=NC=CC=C4C#N)C5=CC=CC=C15 | 18.6 | – | 450 | 548
20 | Cc1cc2c(F)c(Oc3ncnn4cc(OC[C@@H](C)O)c(C)c34)ccc2[nH]1 | 0.00263 | – | 317 | 329
21 | C[C@H](NC(=O)[C@@H](O)c1cc(F)cc(F)c1)C(=O)N[C@@H]1C(=O)N(C)c2ccccc2-c2ccccc21 | 26.3 | – | 381 | 424
22 | O=C(NO)C1(C[S+](=O)([O-])c2ccc(Oc3ccc(Cl)cc3)cc2)CCOCC1 | 16.6 | 553 | 450 | –
23 | COC1CCC(C(=O)c2ccc3nc4c(cc3c2)CCCO4)CC1 (stereo unspecified) | 16.6 | 501 | 460 | –
24 | C[C@@H]1CC2C3C[C@H](F)C\4=C\C(=O)\C=C/[C@]4(C)[C@@]3(F)[C@@H](O)C[C@]2(C)[C@@]1(OC(=O)C5=CC=CO5)C(=O)SCF (stereo partly specified) | 41.7 | 592 | 468 | –
